Earlier results as cited in patent US20250319022A1, “CONCENTRATED SOLUTIONS COMPRISING SODIUM 5,10-METHYLENE-(6R)-TETRAHYDROFOLATE” (Merck Patent GMBH, priority 2022, published 2025).

purity after 7 hours (7 hours after dissolution): 84% | purity after 24 hours compared to the starting purity (% normalized purity) (24 hours following dissolution in water): 44.9% | loss of purity per hour (degradation rate) (reconstituted lyophilizate, linear regression of stability profile): 2.3 % purity per hour
SMILES: Nc1nc2c(c(=O)[nH]1)N1CN(c3ccc(C(=O)N[C@@H](CCC(=O)O)C(=O)O)cc3)C[C@H]1CN2 [5,10-methylene-(6R,S)-tetrahydrofolic acid]
